Assay results as given in the NIST ThermoML archive (doi:10.1021/je800331n).
± gives the expanded uncertainty stated by the source.

Details: Liquid, Vibrating tube method

Row | mass density (298.15 K) | mass density (303.15 K) | mass density (308.15 K) | mass density (313.15 K) | mass density (323.15 K) | mass density (333.15 K) | mass density (343.15 K) | mass density (353.15 K) | Structure (SMILES)
1 | 1366.57 ± 0.55 kg/m3 | 1362.23 ± 0.54 kg/m3 | 1357.92 ± 0.54 kg/m3 | 1353.63 ± 0.53 kg/m3 | 1345.33 ± 0.53 kg/m3 | – | – | – | CCCCn1cc[n+](C)c1.F[P-](F)(F)(F)(F)F [1-butyl-3-methylimidazolium hexafluorophosphate]
2 | 1192.03 ± 0.39 kg/m3 | 1188.38 ± 0.39 kg/m3 | – | 1181.25 ± 0.38 kg/m3 | 1174.18 ± 0.37 kg/m3 | 1167.09 ± 0.37 kg/m3 | 1160.17 ± 0.36 kg/m3 | 1152.63 ± 0.36 kg/m3 | CCCCn1cc[n+](C)c1.F[B-](F)(F)F [1-butyl-3-methylimidazolium tetrafluoroborate]
